One may read the IC50 as the concentration at which inhibition is half-maximal.

Where only a bound is given, the exact number is not on record here.

Here are results for 29 compounds from US20150352108A1, “AMINO-PYRIMIDINE COMPOUNDS AS INHIBITORS OF TBK1 AND/OR IKK EPSILON” (Alzheimer's Institute of America, priority 2009, published 2015).

The test concerns the target T1, IKKε (Homo sapiens, UniProt Q14164).
T1 construct: His-tag; made in house; host or cells: Sf9 insect cells
T1 sequence (Q14164 1-716): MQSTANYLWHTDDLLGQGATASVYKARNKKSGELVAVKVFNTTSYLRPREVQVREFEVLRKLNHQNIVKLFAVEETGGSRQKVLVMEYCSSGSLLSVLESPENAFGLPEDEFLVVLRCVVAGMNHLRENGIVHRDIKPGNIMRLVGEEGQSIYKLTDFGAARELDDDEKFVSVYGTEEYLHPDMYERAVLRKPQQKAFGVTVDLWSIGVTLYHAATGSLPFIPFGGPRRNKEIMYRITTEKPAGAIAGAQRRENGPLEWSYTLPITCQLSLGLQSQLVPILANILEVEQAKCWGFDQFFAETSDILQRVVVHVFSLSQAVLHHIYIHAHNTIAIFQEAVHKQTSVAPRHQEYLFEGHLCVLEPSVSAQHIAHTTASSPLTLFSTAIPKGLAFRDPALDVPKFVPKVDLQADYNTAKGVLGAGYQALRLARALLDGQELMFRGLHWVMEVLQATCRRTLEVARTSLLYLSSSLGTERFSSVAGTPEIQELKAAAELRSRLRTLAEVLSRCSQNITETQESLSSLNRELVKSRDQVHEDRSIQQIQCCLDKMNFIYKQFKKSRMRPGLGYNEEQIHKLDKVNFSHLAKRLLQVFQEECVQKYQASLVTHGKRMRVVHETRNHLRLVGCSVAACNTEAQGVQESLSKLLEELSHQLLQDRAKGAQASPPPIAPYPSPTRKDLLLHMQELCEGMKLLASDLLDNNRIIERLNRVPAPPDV
Nature of the test: In-vitro IKKε kinase assay ([γ33]ATP filter-plate). Type of test: biochemical. The note with it: text bins; read-out: IC50 for inhibition of the kinase activity of IKKε. The procedure: IKKε enzyme was produced as a His-tag fusion in Sf9 cells and used at a final concentration of […]. TBK1 enzyme was produced as a His-tag fusion in Sf9 cells and used at a final concentration of 0.1 μg/ml. Kinase reactions were carried out in reaction buffer using myelin basic protein (Millipore, Ballerica, Mass.) or casein (Sigma, St. Louis, Mo.) as substrate at an ATP concentration equal to twice the Km,ATP value for each enzyme, corresponding to 32 μM ATP for IKKε and 60 μM ATP for TBK1, in the presence of 0.3 μCi [γ^33]ATP (PerkinElmer, Waltham, Mass.). Final enzyme concentrations were 0.1 or 0.015 μg/ml (IKKε) and 0.1 or 0.02 μg/ml (TBK1), representing “normal” and “sensitized” assay conditions respectively. Test compounds (or DMSO solvent as a control) were added prior to initiation of the reactions. Reactions were terminated after 30-45 minutes by adding 3% phosphoric acid. Terminated reactions were transferred to P-81 cellulose phosphate filterplates (Whatman, Inc., Piscataway, N.J.) and washed with 1% phosphoric acid on a vacuum apparatus. After air drying, scintillant (PerkinElmer, Waltham, Mass.) was added and the plates were read on a PerkinElmer TopCount NXT instrument. Counts were normalized to DMSO controls after background subtraction.
With `COc1ccc(Nc2ncc(C)c(-c3cccc(C#N)c3)n2)cc1OC` [compound 304, 3-{2-[(3,4-Dimethoxyphenyl)amino]-5-methylpyrimidin-4-yl}benzonitrile], the half-maximal inhibitory concentration (IC50) is 0.05 to 0.5 µM. Next, `N#Cc1cc(-c2ccnc(Nc3cccc(F)c3)n2)ccc1O[C@@H]1CCN(C(=O)CO)C1` [compound 641, 5-{2-[(3-Fluorophenyl)amino]pyrimidin-4-yl}-2-{[(3R)-1-(hydroxyacetyl)pyrrolidin-3-yl]oxy}benzonitrile]: 0.005 to 0.05 µM; `COc1cc(NC(=O)c2ccccn2)cc(Nc2nccc(-c3ccc(OC)c(C#N)c3)n2)c1` [compound 365]: 0.05 to 0.5 µM; `CC(C)C(=O)Nc1ccc(-c2ccnc(Nc3ccc(OCCN4CCOCC4)cc3)n2)cc1C#N` [compound 431, N-{2-cyano-4-[2-({4-[2-(morpholin-4-yl)ethoxy]phenyl}amino)pyrimidin-4-yl]phenyl}-2-methylpropanamide]: 0.005 to 0.05 µM. Consider `N#Cc1cccc(-c2ccnc(Nc3ccc4c(c3)CCC4)n2)c1` [Example 198, 3-[2-(2,3-Dihydro-1H-inden-5-ylamino)pyrimidin-4-yl]benzonitrile], for which the IC50 is 0.05 to 0.5 µM. With `COc1cc(Nc2nccc(-c3ccc(OC4CCOCC4)c(C#N)c3)n2)ccc1N1CCC(N2CCN(C)CC2)CC1` [compound 514, 5-[2-({3-methoxy-4-[4-(4-methylpiperazin-1-yl)piperidin-1-yl]phenyl}amino)pyrimidin-4-yl]-2-(tetrahydro-2H-pyran-4-yloxy)benzonitrile] the figure was 0.05 to 0.5 µM; with `COc1ccc(Nc2nccc(-c3ccc(OC(C)c4ccccc4)c(C#N)c3)n2)cc1OC` (centres unmarked) [Example 163], 0.05 to 0.5 µM; with `COc1cc(NC(=O)Nc2ccccc2)cc(Nc2nccc(-c3ccc(OC)c(C#N)c3)n2)c1` [compound 364, 1-(3-{[4-(3-Cyano-4-methoxyphenyl)pyrimidin-2-yl]amino}-5-methoxyphenyl)-3-phenylurea], 0.005 to 0.05 µM.

For the compound `N#Cc1cc(-c2ccnc(Nc3ccc(N4CCOCC4)c(C(F)(F)F)c3)n2)ccc1OC1CCOCC1` [Example 120, 5-(2-{[4-(morpholin-4-yl)-3-(trifluoromethyl)phenyl]amino}pyrimidin-4-yl)-2-(tetrahydro-2H-pyran-4-yloxy)benzonitrile], the 50% inhibitory concentration (IC50) was 0.005 to 0.05 µM. For `CN(C)CC(=O)N1CCC(Oc2ccc(-c3ccnc(Nc4ccc(N5CCOCC5)cc4)n3)cc2C#N)CC1` [Example 160, 2-{[1-(N,N-dimethylglycyl)piperidin-4-yl]oxy}-5-(2-{[4-(morpholin-4-yl)phenyl]amino}pyrimidin-4-yl)benzonitrile], the IC50 was 0.05 to 0.5 µM. With `COc1ccc(-c2ccnc(Nc3cccc(NC(=O)NCCCO)c3)n2)cc1C#N` [compound 310, 1-(3-{[4-(3-Cyano-4-methoxyphenyl)pyrimidin-2-yl]amino}phenyl)-3-(3-hydroxypropyl)urea], the IC50 is 0.005 to 0.05 µM. With `N#Cc1cc(-c2ccnc(Nc3cccc(Cn4ccnn4)c3)n2)ccc1OC1CCOCC1` [compound 576, 2-(Tetrahydro-2H-pyran-4-yloxy)-5-(2-{[3-(1H-1,2,3-triazol-1-ylmethyl)phenyl]amino}pyrimidin-4-yl)benzonitrile] the figure was < 0.005 µM; with `N#Cc1cc(-c2ccnc(Nc3cccc(N4CCN(CCO)CC4)c3)n2)ccc1O[C@@H]1CCN(C(=O)CO)C1` [compound 604, 2-{[(3R)-1-(Hydroxyacetyl)pyrrolidin-3-yl]oxy}-5-[2-({3-[4-(2-hydroxyethyl)piperazin-1-yl]phenyl}amino)pyrimidin-4-yl]benzonitrile], < 0.005 µM; with `N#Cc1cc(-c2ccnc(Nc3ccc(N4CCOCC4)cc3)n2)ccc1NC(=O)C1CCOCC1` [Example 97, N-[2-cyano-4-(2-{[4-(morpholin-4-yl)phenyl]amino}pyrimidin-4-yl)phenyl]tetrahydro-2H-pyran-4-carboxamide], 0.05 to 0.5 µM.

For the compound `COc1ccc(-c2ccnc(Nc3cccc(N)c3)n2)cc1C#N` [compound 321, 5-{2-[(3-Aminophenyl)amino]pyrimidin-4-yl}-2-methoxybenzonitrile], the 50% inhibitory concentration (IC50) fell in the range of 0.005 to 0.05 µM. Take `N#Cc1cc(-c2ccnc(Nc3ccc(N4CCOCC4)cc3)n2)ccc1NC(=O)NC1CCCCC1` [Example 61, 1-[2-cyano-4-(2-{[4-(morpholin-4-yl)phenyl]amino}pyrimidin-4-yl)phenyl]-3-cyclohexylurea]: the IC50 lay in the range of 0.05 to 0.5 µM. Turning to `N#Cc1cc(-c2ccnc(Nc3ccc(N4CCOCC4)cc3)n2)ccc1OC1CN(C(=O)CO)C1` [Example 131, 2-{[1-(hydroxyacetyl)azetidin-3-yl]oxy}-5-(2-{[4-(morpholin-4-yl)phenyl]amino}pyrimidin-4-yl)benzonitrile], the IC50 was 0.05 to 0.5 µM. Next, `CC(=O)N1CCC(COc2ccc(-c3ccnc(Nc4ccc(N5CCOCC5)cc4)n3)cc2C#N)C1` (centres unmarked) [compound 469, 2-[(1-acetylpyrrolidin-3-yl)methoxy]-5-(2-{[4-(morpholin-4-yl)phenyl]amino}pyrimidin-4-yl)benzonitrile]: 0.005 to 0.05 µM; `N#Cc1cc(-c2ccnc(Nc3ccc(N4CCOCC4)cc3)n2)ccc1OCCNC(=O)CO` [Example 197, N-{2-[2-cyano-4-(2-{[4-(morpholin-4-yl)phenyl]amino}pyrimidin-4-yl)phenoxy]ethyl}-2-hydroxyacetamide]: 0.005 to 0.05 µM; `N#Cc1cc(-c2ccnc(Nc3ccc(F)c(F)c3)n2)ccc1O[C@@H]1CCN(C(=O)CO)C1` [compound 582, 5-{2-[(3,4-Difluorophenyl)amino]pyrimidin-4-yl}-2-{[(3R)-1-(hydroxyacetyl)pyrrolidin-3-yl]oxy}benzonitrile]: 0.005 to 0.05 µM. For `N#Cc1cc(-c2ccnc(Nc3cccc(-c4cccnc4)c3)n2)ccc1OC1CCOCC1` [compound 549, 5-(2-{[3-(Pyridin-3-yl)phenyl]amino}pyrimidin-4-yl)-2-(tetrahydro-2H-pyran-4-yloxy)benzonitrile], the IC50 was < 0.005 µM.

`CC(=O)Nc1cccc(Nc2nccc(-c3cccc(C#N)c3)n2)c1` [Example 277, N-(3-{[4-(3-Cyanophenyl)pyrimidin-2-yl]amino}phenyl) acetamide]: the 50% inhibitory concentration (IC50) was in the range of 0.05 to 0.5 µM. As to `COc1ccc(-c2ccnc(Nc3ccc(S(=O)(=O)N4CCN(C)CC4)cc3)n2)cc1C#N` [compound 308, 2-Methoxy-5-[2-({4-[(4-methylpiperazin-1-yl)sulfonyl]phenyl}amino)pyrimidin-4-yl]benzonitrile], the IC50 is 0.05 to 0.5 µM.

As for `N#Cc1cc(-c2ccnc(Nc3ccc(N4CCOCC4)cc3)n2)ccc1OC1CCN(CC(=O)N2CCOCC2)CC1` [Example 234, 2-({1-[2-(morpholin-4-yl)-2-oxoethyl]piperidin-4-yl}oxy)-5-(2-{[4-(morpholin-4-yl)phenyl]amino}pyrimidin-4-yl)benzonitrile], the IC50 was in the range of 0.05 to 0.5 µM. Next, `COc1cc(Nc2nccc(-c3ccc(OC4CCNCC4)c(C#N)c3)n2)ccc1S(=O)(=O)NCCCN(C)C` [compound 398]: 0.05 to 0.5 µM; `N#Cc1cc(-c2ccnc(Nc3ccc(CN4CCN(CCO)CC4)cc3)n2)ccc1O[C@@H]1CCN(C(=O)CO)C1` [compound 636, 2-{[(3R)-1-(Hydroxyacetyl)pyrrolidin-3-yl]oxy}-5-{2-[(4-{[4-(2-hydroxyethyl)piperazin-1-yl]methyl}phenyl)amino]pyrimidin-4-yl}benzonitrile]: < 0.005 µM; `COc1ccc(-c2ccnc(Nc3cc(CNCCO)c(OC)c(OC)c3)n2)cc1C#N` [Example 173, 5-{2-[(3-{[(2-Hydroxyethyl)amino]methyl}-4,5-dimethoxyphenyl)amino]pyrimidin-4-yl}-2-methoxybenzonitrile]: 0.005 to 0.05 µM. As to `CC(=O)OC(C)C(=O)Nc1ccc(-c2ccnc(Nc3ccc(N4CCOCC4)cc3)n2)cc1C#N` (centres unmarked) [Example 147, 1-{[2-cyano-4-(2-{[4-(morpholin-4-yl)phenyl]amino}pyrimidin-4-yl)phenyl]amino}-1-oxopropan-2-yl acetate], the concentration for half-maximal inhibition (IC50) was in the range of 0.05 to 0.5 µM. Regarding `Cc1ccnc(NS(=O)(=O)c2ccc(Nc3nccc(-c4ccc(OC5CCOCC5)c(C#N)c4)n3)cc2)n1` [compound 635, 4-({4-[3-Cyano-4-(tetrahydro-2H-pyran-4-yloxy)phenyl]pyrimidin-2-yl}amino)-N-(4-methylpyrimidin-2-yl)benzene-sulfonamide], the 50% inhibitory concentration (IC50) is < 0.005 µM.
